Measured values published in ChEMBL document CHEMBL1144616, “Synthesis and biological evaluation of 7-azaindole derivatives, synthetic cytokinin analogues” (Bioorg Med Chem Lett, 2007).
Calls of active or inactive are those of the source. The rule behind the calls is not given here.

Experiments:
HL-60 [1] = assay: Antiproliferative activity against human HL60 cells; assay type: functional, cell-based
HL-60 [2] = assay: Proapoptotic effect in human HL60 cells at 10 uM; assay type: functional, cell-based
HL-60 [3] = assay: Cell cycle arrest in human HL60 cells assessed as increase in preG1 fraction relative to control; assay type: functional
HL-60 [4] = assay: Proapoptotic effect in human HL60 cells at 500 uM; assay type: functional, cell-based

Row | IC50 (HL-60 [1]) [µM] | Compound | Activity (HL-60 [2]) | Activity (HL-60 [3]) [%] | Activity (HL-60 [4])
1 | 23.6 | c1ccc(N2CCN(c3ccnc4[nH]ccc34)CC2)cc1 | Active |  | 
2 | 23.5 | c1ccc(Nc2ccnc3[nH]ccc23)cc1 | Active | 39.9 | 
3 | > 100 | Cn1ccc2c(NCCc3ccccc3)ccnc21 |  |  | Active
4 | 12.6 | c1ccc(CNc2ccnc3[nH]ccc23)cc1 | Active |  | 
5 | > 100 | Cn1ccc2c(N3CCN(c4ccccc4)CC3)ccnc21 |  |  | Active
6 | > 100 | Cn1ccc2c(NCc3ccccc3)ccnc21 |  |  | Active
7 | > 100 | Cn1ccc2c(Nc3ccccc3)ccnc21 |  |  | Active
8 | 23.7 | c1ccc(CCNc2ccnc3[nH]ccc23)cc1 | Active |  | 

Row | Compound | IC50 (HL-60 [1]) [µM] | Activity (HL-60 [2]) | Activity (HL-60 [3]) [%] | Activity (HL-60 [4])
9 | c1ccc(CNc2ncnc3[nH]cnc23)cc1 [6-BENZYLAMINOPURINE] | > 100 |  |  | 
10 | c1coc(CNc2ncnc3[nH]cnc23)c1 [KINETIN] | 21.9 |  |  | 
